Experimental data reported in patent US11673884B2, “Matrix metalloproteinase (MMP) inhibitors and methods of use thereof” (Foresee Pharmaceuticals Co., Ltd., priority 2019, dated 2023).
Like-named read-outs stand apart in the source and are kept apart here.

Assays:
Format in all cases: biochemical
[1] = target: recombinant human MMP-2 (Homo sapiens (Human), UniProt P08253); assay: MMP selectivity assay, MMP-2; settings: Table 2 selectivity profile; read-out: IC50, Target: MMP 2
Procedure: (§1) The inhibitory effect of compounds on the rate of cleaving fluorogenic MMP substrate (Enzo, BML-P128) by recombinant human MMP-12 catalytic domain (Enzo, BML-SE138) was carried out by methods known in the art. Briefly, to each well of a 96-well black opaque plate, all the reagents were sequentially added by pipetting, and the final reaction contained 4 nM of recombinant human MMP-12 catalytic domain, 4 μM of fluorogenic MMP substrate, and various concentrations (0.057 nM to 1,000 nM) of tested compound dilutions in HEPES buffer (pH 7.5) containing 10 mM of CaCl2, 0.01% Brij® 35 (polyoxyethylene (23) lauryl ether), and 0.1 mg/ml of BSA.
(§2) The enzyme and compounds were pre-incubated on a shaker to mix in wells. After an hour of mixing, fluorogenic substrate was added to each well. Reaction without enzyme was used as a blank control in the plate. The plate was then fed into a plate reader to measure fluorescence intensity at Excitation/Emission wavelengths of 340 nm/440 nm every 10 mins for at least 1 hour at 37° C. The IC50 of each compound in MMP-12 inhibition was determined by using a readout obtained at time point 30 minutes.
(§3) The MMP selectivity assay was performed by using other recombinant human MMPs, including MMP-1, MMP-2, MMP-3, MMP-7, MMP-8, MMP-9, MMP-10, MMP-12, MMP-13, and MMP-14. The IC50 of the compounds for the other recombinant human MMPs was determined as described above in Example 1, and are shown in Table 2. The IC50 values are reported as follows: A=less than 1 nM, B=1 nM to 10 nM, C=10 nM to 100 nM, D=greater than 100 nM.

[2] = target: recombinant human MMP-12 catalytic domain (Homo sapiens (Human), UniProt P39900); assay: MMP-12 inhibitory assay, fluorogenic substrate cleavage
Procedure: as §1, §2

[3] = target: recombinant human MMP-13 (Homo sapiens (Human), UniProt P45452); assay: MMP selectivity assay, MMP-13; settings: Table 2 selectivity profile; read-out: IC50, Target: MMP 13
Procedure: as §1, §2, §3

[4] = target: recombinant human MMP-10 (Homo sapiens (Human), UniProt P09238); assay: MMP selectivity assay, MMP-10; settings: Table 2 selectivity profile; read-out: IC50, Target: MMP 10
Procedure: as §1, §2, §3

[5] = target: recombinant human MMP-3 (Homo sapiens (Human), UniProt P08254); assay: MMP selectivity assay, MMP-3; settings: Table 2 selectivity profile; read-out: IC50, Target: MMP 3
Procedure: as §1, §2, §3

[6] = target: recombinant human MMP-1 (Homo sapiens (Human), UniProt P03956); assay: MMP selectivity assay, MMP-1; settings: Table 2 selectivity profile; read-out: IC50, Target: MMP 1
Procedure: as §1, §2, §3

[7] = target: recombinant human MMP-9 (Homo sapiens (Human), UniProt P14780); assay: MMP selectivity assay, MMP-9; settings: Table 2 selectivity profile; read-out: IC50, Target: MMP 9
Procedure: as §1, §2, §3

[8] = target: recombinant human MMP-7 (Homo sapiens (Human), UniProt P09237); assay: MMP selectivity assay, MMP-7; settings: Table 2 selectivity profile; read-out: IC50, Target: MMP 7
Procedure: as §1, §2, §3

[9] = target: recombinant human MMP-8 (Homo sapiens (Human), UniProt P22894); assay: MMP selectivity assay, MMP-8; settings: Table 2 selectivity profile; read-out: IC50, Target: MMP 8
Procedure: as §1, §2, §3

[10] = target: recombinant human MMP-14 (Homo sapiens (Human), UniProt P50281); assay: MMP selectivity assay, MMP-14; settings: Table 2 selectivity profile; read-out: IC50, Target: MMP 14
Procedure: as §1, §2, §3

[11] = Table 1, readout at time point 30 minutes, read-out: MMP-12 IC50
[12] = Table 2 selectivity profile, read-out: IC50, Target: MMP 12

Chain of recombinant human MMP-3 (P08254 100-477): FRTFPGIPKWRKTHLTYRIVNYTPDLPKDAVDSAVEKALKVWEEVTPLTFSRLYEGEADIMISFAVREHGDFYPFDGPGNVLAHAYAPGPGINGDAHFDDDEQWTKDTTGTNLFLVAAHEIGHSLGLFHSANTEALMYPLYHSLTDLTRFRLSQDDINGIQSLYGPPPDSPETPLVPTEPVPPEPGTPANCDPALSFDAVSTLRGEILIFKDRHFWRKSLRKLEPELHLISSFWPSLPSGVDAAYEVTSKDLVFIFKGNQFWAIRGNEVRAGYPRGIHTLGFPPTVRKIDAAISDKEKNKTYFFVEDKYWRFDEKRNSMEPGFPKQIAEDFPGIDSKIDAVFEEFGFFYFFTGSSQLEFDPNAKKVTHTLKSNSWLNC
Chain of recombinant human MMP-8 (P22894 101-467): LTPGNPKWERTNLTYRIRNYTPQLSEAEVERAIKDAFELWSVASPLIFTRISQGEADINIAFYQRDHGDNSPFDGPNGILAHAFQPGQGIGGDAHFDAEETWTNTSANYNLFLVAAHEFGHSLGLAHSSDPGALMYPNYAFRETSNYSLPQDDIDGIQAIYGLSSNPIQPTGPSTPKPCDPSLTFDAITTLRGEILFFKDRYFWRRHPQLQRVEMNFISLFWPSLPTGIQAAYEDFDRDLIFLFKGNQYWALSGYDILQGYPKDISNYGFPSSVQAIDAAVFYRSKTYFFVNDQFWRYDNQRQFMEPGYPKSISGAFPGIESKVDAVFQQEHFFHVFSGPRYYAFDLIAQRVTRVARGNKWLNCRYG
Chain of recombinant human MMP-12 catalytic domain (P39900 106-268): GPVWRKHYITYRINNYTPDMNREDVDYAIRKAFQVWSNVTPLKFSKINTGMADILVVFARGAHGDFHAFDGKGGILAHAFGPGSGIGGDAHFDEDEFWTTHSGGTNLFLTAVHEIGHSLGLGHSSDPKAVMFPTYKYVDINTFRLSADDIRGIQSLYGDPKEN
Chain of recombinant human MMP-7 (P09237 95-267): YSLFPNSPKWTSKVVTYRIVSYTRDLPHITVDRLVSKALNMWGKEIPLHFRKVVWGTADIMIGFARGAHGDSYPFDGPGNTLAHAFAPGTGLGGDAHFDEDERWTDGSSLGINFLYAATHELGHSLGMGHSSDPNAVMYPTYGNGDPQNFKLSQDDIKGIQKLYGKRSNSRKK
Chain of recombinant human MMP-10 (P09238 99-476): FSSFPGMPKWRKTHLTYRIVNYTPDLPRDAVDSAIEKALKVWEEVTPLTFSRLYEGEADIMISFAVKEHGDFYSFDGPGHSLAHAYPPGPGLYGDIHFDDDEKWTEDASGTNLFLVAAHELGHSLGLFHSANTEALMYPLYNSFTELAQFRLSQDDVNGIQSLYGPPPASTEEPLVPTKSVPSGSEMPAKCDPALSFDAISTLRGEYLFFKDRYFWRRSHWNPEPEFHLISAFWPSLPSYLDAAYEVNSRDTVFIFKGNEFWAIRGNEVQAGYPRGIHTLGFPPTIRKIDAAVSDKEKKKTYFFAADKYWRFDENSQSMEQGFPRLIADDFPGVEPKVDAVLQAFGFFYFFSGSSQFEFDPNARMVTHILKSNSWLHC
Chain of recombinant human MMP-2 (P08253 110-660): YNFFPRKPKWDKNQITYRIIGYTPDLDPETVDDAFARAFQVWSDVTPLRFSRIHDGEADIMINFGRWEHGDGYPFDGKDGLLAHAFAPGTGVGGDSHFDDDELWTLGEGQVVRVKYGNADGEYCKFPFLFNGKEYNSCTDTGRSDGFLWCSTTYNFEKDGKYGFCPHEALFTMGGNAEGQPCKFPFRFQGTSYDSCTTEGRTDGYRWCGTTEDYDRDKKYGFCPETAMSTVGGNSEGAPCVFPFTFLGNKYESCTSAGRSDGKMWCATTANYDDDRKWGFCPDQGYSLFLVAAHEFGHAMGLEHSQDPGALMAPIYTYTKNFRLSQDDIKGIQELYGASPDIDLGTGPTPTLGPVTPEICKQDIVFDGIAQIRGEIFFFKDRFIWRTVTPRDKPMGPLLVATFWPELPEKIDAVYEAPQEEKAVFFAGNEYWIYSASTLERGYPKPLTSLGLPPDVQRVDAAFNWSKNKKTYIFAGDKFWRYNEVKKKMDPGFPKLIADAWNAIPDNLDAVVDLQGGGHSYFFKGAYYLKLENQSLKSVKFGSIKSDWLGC
Chain of recombinant human MMP-9 (P14780 94-707): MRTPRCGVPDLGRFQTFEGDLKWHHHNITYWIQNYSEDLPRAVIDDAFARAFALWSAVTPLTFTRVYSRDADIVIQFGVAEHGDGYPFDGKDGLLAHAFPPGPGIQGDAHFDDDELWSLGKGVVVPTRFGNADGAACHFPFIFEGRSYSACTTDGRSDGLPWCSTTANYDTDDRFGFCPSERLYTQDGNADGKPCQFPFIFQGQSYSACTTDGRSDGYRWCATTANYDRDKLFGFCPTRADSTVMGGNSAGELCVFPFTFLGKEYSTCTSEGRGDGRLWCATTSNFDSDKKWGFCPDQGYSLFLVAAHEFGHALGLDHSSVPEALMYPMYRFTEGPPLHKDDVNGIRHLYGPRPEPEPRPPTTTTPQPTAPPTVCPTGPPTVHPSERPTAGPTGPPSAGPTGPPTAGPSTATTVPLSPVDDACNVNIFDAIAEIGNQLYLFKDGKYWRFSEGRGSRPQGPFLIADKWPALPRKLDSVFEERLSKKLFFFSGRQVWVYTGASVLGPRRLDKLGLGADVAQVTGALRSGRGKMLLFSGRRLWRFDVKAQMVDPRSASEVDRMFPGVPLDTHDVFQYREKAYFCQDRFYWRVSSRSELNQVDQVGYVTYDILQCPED
Chain of recombinant human MMP-1 (P03956 100-469): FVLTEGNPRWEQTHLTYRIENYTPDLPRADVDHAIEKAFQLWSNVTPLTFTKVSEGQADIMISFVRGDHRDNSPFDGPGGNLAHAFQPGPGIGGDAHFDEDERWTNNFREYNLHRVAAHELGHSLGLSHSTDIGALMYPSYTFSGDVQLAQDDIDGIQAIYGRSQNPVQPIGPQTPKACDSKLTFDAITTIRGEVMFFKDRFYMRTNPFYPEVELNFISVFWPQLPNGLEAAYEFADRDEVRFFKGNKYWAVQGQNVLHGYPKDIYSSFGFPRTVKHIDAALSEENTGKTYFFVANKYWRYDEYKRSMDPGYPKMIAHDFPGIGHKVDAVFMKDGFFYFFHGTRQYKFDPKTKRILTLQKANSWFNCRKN

IC50 [1] [nM] | IC50 [2, 11] [nM] | IC50 [2, 12] [nM] | IC50 [3] [nM] | IC50 [4] [nM] | IC50 [5] [nM] | IC50 [6] [nM] | IC50 [7] [nM] | IC50 [8] [nM] | IC50 [9] [nM] | IC50 [10] [nM] | SMILES
> 100 | 10 to 100 | 10 to 100 | > 100 | > 100 | > 100 | > 100 | > 100 | > 100 | > 100 | > 100 | Cc1cc(C#Cc2ccc(Sc3ccoc3C3NC(=O)NC3=O)cc2)ccn1 (centres unmarked) [AC-1]
1 to 10 | < 1 | < 1 | 10 to 100 | > 100 | 10 to 100 | > 100 | 10 to 100 | > 100 | 10 to 100 | > 100 | Cc1cc(/C=C/c2ccc(Sc3ccoc3C3NC(=O)NC3=O)cc2)ccn1 (centres unmarked) [AC-2]
1 to 10 | < 1 | < 1 | 10 to 100 | 10 to 100 | 10 to 100 | > 100 | 10 to 100 | > 100 | 1 to 10 | > 100 | CCC1(c2occc2Sc2ccc(/C=C/c3ccnc(C)c3)cc2)NC(=O)NC1=O (centres unmarked) [AC-3]
> 100 | 1 to 10 | 1 to 10 | > 100 | > 100 | > 100 | > 100 | > 100 | > 100 | > 100 | > 100 | Cc1cc(C#Cc2ccc(Sc3ccncc3C3NC(=O)NC3=O)cc2)ccn1 (centres unmarked) [AC-4]
10 to 100 | < 1 | < 1 | > 100 | > 100 | > 100 | > 100 | > 100 | > 100 | > 100 | > 100 | Cc1cc(/C=C/c2ccc(Sc3ccncc3C3NC(=O)NC3=O)cc2)ccn1 (centres unmarked) [AC-5]
10 to 100 | < 1 | < 1 | > 100 | > 100 | > 100 | > 100 | > 100 | > 100 | 10 to 100 | > 100 | Cc1cc(/C=C/c2ccc(Oc3ccncc3C3NC(=O)NC3=O)cc2)ccn1 (centres unmarked) [AC-6]
> 100 | 1 to 10 | 1 to 10 | > 100 | > 100 | > 100 | > 100 | > 100 | > 100 | > 100 | > 100 | Cc1cc(C#Cc2ccc(Oc3ccncc3C3NC(=O)NC3=O)cc2)ccn1 (centres unmarked) [AC-7]
 | < 1 |  |  |  |  |  |  |  |  |  | CCC1(c2cnccc2Sc2ccc(/C=C/c3ccnc(C)c3)cc2)NC(=O)NC1=O (centres unmarked) [AC-8]
10 to 100 | < 1 | < 1 | > 100 | > 100 | > 100 | > 100 | > 100 | > 100 | 10 to 100 | > 100 | Cc1cc(C#Cc2ccc(Sc3ccsc3C3NC(=O)NC3=O)cc2)ccn1 (centres unmarked) [AC-9]
1 to 10 | < 1 | < 1 | 1 to 10 | > 100 | 10 to 100 | > 100 | 10 to 100 | > 100 | 1 to 10 | > 100 | Cc1cc(/C=C/c2ccc(Sc3ccsc3C3NC(=O)NC3=O)cc2)ccn1 (centres unmarked) [AC-10]
10 to 100 | < 1 | < 1 | > 100 | > 100 | > 100 | > 100 | > 100 | > 100 | 10 to 100 | > 100 | Cc1cc(C#Cc2ccc(Sc3cnn(C)c3C3NC(=O)NC3=O)cc2)ccn1 (centres unmarked) [AC-11]
1 to 10 | < 1 | < 1 | 10 to 100 | > 100 | > 100 | > 100 | > 100 | > 100 | 10 to 100 | > 100 | Cc1cc(/C=C/c2ccc(Sc3cnn(C)c3C3NC(=O)NC3=O)cc2)ccn1 (centres unmarked) [AC-12]
